This passage reports Ki results from patent US9073855B2, “BCL-2 selective apoptosis-inducing agents for the treatment of cancer and immune diseases” (AbbVie Inc., priority 2008, dated 2015).

In one test the target is GST-Bcl-2 (Homo sapiens, UniProt P10415). As to the kind of experiment: TR-FRET binding assay, GST-Bcl-2 with F-Bak peptide probe. The note with it: TR-FRET Binding Affinity, GST-Bcl-2, F-Bak peptide probe. On the procedure: (§1) Tb-anti-GST antibody was purchased from Invitrogen (Catalog No. PV4216).
GST-Bcl-2, sequence (P10415 whole entry): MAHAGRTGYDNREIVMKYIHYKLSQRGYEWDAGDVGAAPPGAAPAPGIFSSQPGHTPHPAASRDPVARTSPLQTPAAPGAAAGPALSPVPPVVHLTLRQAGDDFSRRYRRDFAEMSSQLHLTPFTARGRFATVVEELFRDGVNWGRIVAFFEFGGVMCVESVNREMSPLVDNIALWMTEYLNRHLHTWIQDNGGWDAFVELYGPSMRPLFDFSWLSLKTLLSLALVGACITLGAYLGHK
(§2) Representative compounds were serially diluted in dimethyl sulfoxide (DMSO) starting at 50 μM (2× starting concentration; 10% DMSO) and 10 μL were transferred into a 384-well plate.
(§3) The samples were then mixed on a shaker for 1 minute and incubated for an additional 3 hours at room temperature. For each assay, the probe/antibody and protein/probe/antibody were included on each assay plate as negative and positive controls, respectively. Fluorescence was measured on the ENVISION plate reader (Perkin Elmer) using a 340/35 nm excitation filter and 520/525 (F-Bak peptide) and 495/510 nm (Tb-labeled […] antibody) emission filters.
(§4) The inhibition constant (Ki) is the dissociation constant of an enzyme-inhibitor complex or a protein/small molecule complex, wherein the small molecule is inhibiting binding of one protein to another protein or peptide. […] Inhibition constants were determined using Wang's equation (Wang Z-X., An Exact Mathematical Expression For Describing Competitive Binding Of Two Different Ligands To A Protein Molecule. FEBS Lett. 1995, 360:111-4).
On the technique in general: Time-resolved FRET reads energy transfer from a long-lived donor to a nearby acceptor.

The target in another test is GST-Bcl-XL (Homo sapiens, UniProt Q07817). The experiment in a line: TR-FRET binding assay, GST-Bcl-XL with F-Bak peptide probe. The note with it: TR-FRET Binding Affinity, GST-Bcl-XL, F-Bak peptide probe. On the procedure: as §1, §2, §3, §4
GST-Bcl-XL, sequence (Q07817 whole entry): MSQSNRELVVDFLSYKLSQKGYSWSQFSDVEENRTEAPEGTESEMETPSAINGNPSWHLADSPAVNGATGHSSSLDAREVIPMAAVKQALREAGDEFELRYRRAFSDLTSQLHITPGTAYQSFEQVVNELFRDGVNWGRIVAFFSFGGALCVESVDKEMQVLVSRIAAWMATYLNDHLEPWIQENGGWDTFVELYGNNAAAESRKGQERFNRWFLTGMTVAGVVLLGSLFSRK

For orientation: Ki means the equilibrium dissociation constant of an inhibitor or competing ligand from its target. A high value points to lower affinity. Turning to `CC1(C)CN(c2ccc(S(=O)(=O)NC(=O)c3ccc(N4CCN(Cc5ccccc5-c5ccc(Cl)cc5)CC4)cc3Oc3ccccc3)cc2)C1=O` [Example 30, 4-{4-[(4′-chloro-1,1′-biphenyl-2-yl)methyl]piperazin-1-yl}-N-{[4-(3,3-dimethyl-2-oxoazetidin-1-yl)phenyl]sulfonyl}-2-phenoxybenzamide], the inhibition constant (Ki) at GST-Bcl-2 was 103 nM; on GST-Bcl-XL, greater than 660 nM.
On to `O=C(NS(=O)(=O)c1ccc(-n2ncc([N+](=O)[O-])n2)cc1)c1ccc(N2CCN(Cc3ccccc3-c3ccc(Cl)cc3)CC2)cc1Oc1ccccc1` [Example 31, 4-{4-[(4′-chloro-1,1′-biphenyl-2-yl)methyl]piperazin-1-yl}-N-{[4-(4-nitro-2H-1,2,3-triazol-2-yl)phenyl]sulfonyl}-2-phenoxybenzamide], for which the values for the Ki on GST-Bcl-2 and at GST-Bcl-XL were 36.6 nM and greater than 660 nM, respectively.
In the same order, the values of `O=C(NS(=O)(=O)c1ccccc1OCCN1CCCCC1)c1ccc(N2CCN(Cc3ccccc3-c3ccc(Cl)cc3)CC2)cc1Oc1ccccc1` [Example 32, 4-{4-[(4′-chloro-1,1′-biphenyl-2-yl)methyl]piperazin-1-yl}-2-phenoxy-N-{[2-(2-piperidin-1-ylethoxy)phenyl]sulfonyl}benzamide] are 61.1 nM and greater than 660 nM.
Turning to `CCN1CCCC1CNC(=O)c1cc(S(=O)(=O)NC(=O)c2ccc(N3CCN(Cc4ccccc4-c4ccc(Cl)cc4)CC3)cc2Oc2ccccc2)ccc1OC` (centres unmarked) [Example 33, 4-{4-[(4′-chloro-1,1′-biphenyl-2-yl)methyl]piperazin-1-yl}-N-{[3-({[(1-ethylpyrrolidin-2-yl)methyl]amino}carbonyl)-4-methoxyphenyl]sulfonyl}-2-phenoxybenzamide], the Ki on GST-Bcl-2 stood at 6.68 nM; on GST-Bcl-XL, 333 nM.
As to `O=C(NS(=O)(=O)c1ccc(NCC2CCOCC2)c([N+](=O)[O-])c1)c1ccc(N2CCN(Cc3ccccc3-c3ccc(Cl)cc3)CC2)cc1Oc1cccc2ccccc12` [Example 34, 4-{4-[(4′-chloro-1,1′-biphenyl-2-yl)methyl]piperazin-1-yl}-2-(1-naphthyloxy)-N-({3-nitro-4-[(tetrahydro-2H-pyran-4-ylmethyl)amino]phenyl}sulfonyl)benzamide], the Ki at GST-Bcl-2 came out at 1.99 nM; at GST-Bcl-XL, 88 nM.
In the same order, the values of `O=C(NS(=O)(=O)c1ccc(NCCCN2CCOCC2)c([N+](=O)[O-])c1)c1ccc(N2CCN(Cc3ccccc3-c3ccc(Cl)cc3)CC2)cc1Oc1ccc2ccccc2c1` [Example 36, 4-{4-[(4′-chloro-1,1′-biphenyl-2-yl)methyl]piperazin-1-yl}-N-({4-[(3-morpholin-4-ylpropyl)amino]-3-nitrophenyl}sulfonyl)-2-(2-naphthyloxy)benzamide] are 0.796 nM and 8.99 nM.
In the same order, the values of `O=C(NS(=O)(=O)c1ccc(NCC2CCOCC2)c(S(=O)(=O)C(F)(F)F)c1)c1ccc(N2CCN(Cc3ccccc3-c3ccc(Cl)cc3)CC2)cc1Oc1ccc2ccccc2c1` [Example 37, 4-{4-[(4′-chloro-1,1′-biphenyl-2-yl)methyl]piperazin-1-yl}-2-(2-naphthyloxy)-N-({4-[(tetrahydro-2H-pyran-4-ylmethyl)amino]-3-[(trifluoromethyl)sulfonyl]phenyl}sulfonyl)benzamide] are 0.464 nM and 44.4 nM.
Take `CN(C)CCCNc1ccc(S(=O)(=O)NC(=O)c2ccc(N3CCN(Cc4ccccc4-c4ccc(Cl)cc4)CC3)cc2Oc2cccc3cnccc23)cc1[N+](=O)[O-]` [Example 42, 4-{4-[(4′-chloro-1,1′-biphenyl-2-yl)methyl]piperazin-1-yl}-N-[(4-{[3-(dimethylamino)propyl]amino}-3-nitrophenyl)sulfonyl]-2-(isoquinolin-5-yloxy)benzamide]: the results for the Ki on GST-Bcl-2 and on GST-Bcl-XL were 0.048 nM and 3.84 nM, respectively.
Consider `CN(C)CCCNc1ccc(S(=O)(=O)NC(=O)c2ccc(N3CCN(Cc4ccccc4-c4ccc(Cl)cc4)CC3)cc2Oc2ccc3cc[nH]c3c2)cc1[N+](=O)[O-]` [Example 47, 4-{4-[(4′-chloro-1,1′-biphenyl-2-yl)methyl]piperazin-1-yl}-N-[(4-{[3-(dimethylamino)propyl]amino}-3-nitrophenyl)sulfonyl]-2-(1H-indol-6-yloxy)benzamide], for which the Ki on GST-Bcl-2 came out at 6.63 nM; at GST-Bcl-XL, 104 nM.
In the same order, the values of `CC1(C)CCC(c2ccc(Cl)cc2)=C(CN2CCN(c3ccc(C(=O)NS(=O)(=O)c4ccc(NCCCN5CCOCC5)c([N+](=O)[O-])c4)c(Oc4ccc5[nH]ccc5c4)c3)CC2)C1` [Example 50, 4-(4-{[2-(4-chlorophenyl)-5,5-dimethylcyclohex-1-en-1-yl]methyl}piperazin-1-yl)-2-(1H-indol-5-yloxy)-N-({4-[(3-morpholin-4-ylpropyl)amino]-3-nitrophenyl}sulfonyl)benzamide] are 0.471 nM and 90.1 nM.
Consider `CN(C)CCCNc1ccc(S(=O)(=O)NC(=O)c2ccc(N3CCN(CC4=C(c5ccc(Cl)cc5)CCC(C)(C)C4)CC3)cc2Oc2ccc3[nH]ccc3c2)cc1[N+](=O)[O-]` [Example 51, 4-(4-{[2-(4-chlorophenyl)-5,5-dimethylcyclohex-1-en-1-yl]methyl}piperazin-1-yl)-N-[(4-{[3-(dimethylamino)propyl]amino}-3-nitrophenyl)sulfonyl]-2-(1H-indol-5-yloxy)benzamide], for which the Ki is 0.252 nM on GST-Bcl-2 and 15.6 nM on GST-Bcl-XL.
`O=C(NS(=O)(=O)c1ccc(NCCCN2CCOCC2)c([N+](=O)[O-])c1)c1ccc(N2CCN(Cc3ccccc3-c3ccc(Cl)cc3)CC2)cc1Oc1cccc2[nH]ccc12` [Example 58, 4-{4-[(4′-chloro-1,1′-biphenyl-2-yl)methyl]piperazin-1-yl}-2-(1H-indol-4-yloxy)-N-({4-[(3-morpholin-4-ylpropyl)amino]-3-nitrophenyl}sulfonyl)benzamide]: the Ki at GST-Bcl-2 was determined as 1.08 nM; on GST-Bcl-XL, 288 nM.
Consider `COc1ccc(S(=O)(=O)NC(=O)c2ccc(N3CCN(Cc4ccccc4-c4ccc(Cl)cc4)CC3)cc2Oc2ccccc2)cc1` [Example 60, 4-{4-[(4′-chloro-1,1′-biphenyl-2-yl)methyl]piperazin-1-yl}-N-[(4-methoxyphenyl)sulfonyl]-2-phenoxybenzamide], for which the Ki is 18.9 nM at GST-Bcl-2 and greater than 660 nM at GST-Bcl-XL.
For `Cc1ccc(S(=O)(=O)NC(=O)c2ccc(N3CCN(Cc4ccccc4-c4ccc(Cl)cc4)CC3)cc2Oc2ccccc2)cc1` [Example 61, 4-{4-[(4′-chloro-1,1′-biphenyl-2-yl)methyl]piperazin-1-yl}-N-[(4-methylphenyl)sulfonyl]-2-phenoxybenzamide], the Ki is 52.2 nM at GST-Bcl-2 and greater than 660 nM at GST-Bcl-XL.
On to `O=C(NS(=O)(=O)c1ccc(NCC2CCOCC2)c(S(=O)(=O)C(F)(F)F)c1)c1ccc(N2CCN(Cc3ccccc3-c3ccc(Cl)cc3)CC2)cc1Oc1ccc2[nH]ccc2c1` [Example 62, 4-{4-[(4′-chloro-1,1′-biphenyl-2-yl)methyl]piperazin-1-yl}-2-(1H-indol-5-yloxy)-N-({4-[(tetrahydro-2H-pyran-4-ylmethyl)amino]-3-[(trifluoromethyl)sulfonyl]phenyl}sulfonyl)benzamide], for which the Ki at GST-Bcl-2 turned out to be 3.52 nM; on GST-Bcl-XL, 571 nM.
The matching figures for `CN(C)CCCNc1ccc(S(=O)(=O)NC(=O)c2ccc(N3CCN(Cc4ccccc4-c4ccc(Cl)cc4)CC3)cc2Oc2ccc3[nH]ccc3c2)cc1S(=O)(=O)C(F)(F)F` [Example 64, 4-{4-[(4′-chloro-1,1′-biphenyl-2-yl)methyl]piperazin-1-yl}-N-({4-{[3-(dimethylamino)propyl]amino}-3-[(trifluoromethyl)sulfonyl]phenyl}sulfonyl)-2-(1H-indol-5-yloxy)benzamide]: 0.523 nM and 40.3 nM.
With `O=C(NS(=O)(=O)c1ccc(NCCCN2CCOCC2)c(S(=O)(=O)C(F)(F)F)c1)c1ccc(N2CCN(Cc3ccccc3-c3ccc(Cl)cc3)CC2)cc1Oc1cccc2[nH]ccc12` [Example 65, 4-{4-[(4′-chloro-1,1′-biphenyl-2-yl)methyl]piperazin-1-yl}-2-(1H-indol-4-yloxy)-N-({4-[(3-morpholin-4-ylpropyl)amino]-3-[(trifluoromethyl)sulfonyl]phenyl}sulfonyl)benzamide], the Ki amounted to 4.56 nM at GST-Bcl-2 and 21.8 nM at GST-Bcl-XL.
The matching figures for `CN(C)CCCNc1ccc(S(=O)(=O)NC(=O)c2ccc(N3CCN(CC4=C(c5ccc(Cl)cc5)CC(C)(C)CC4)CC3)cc2Oc2ccc3[nH]ccc3c2)cc1S(=O)(=O)C(F)(F)Cl` [Example 67, N-[(3-{[chloro(difluoro)methyl]sulfonyl}-4-{[3-(dimethylamino)propyl]amino}phenyl)sulfonyl]-4-(4-{[2-(4-chlorophenyl)-4,4-dimethylcyclohex-1-en-1-yl]methyl}piperazin-1-yl)-2-(1H-indol-5-yloxy)benzamide]: 289 nM and greater than 660 nM.
In the same order, the values of `O=C(NS(=O)(=O)c1ccc(NCCCN2CCOCC2)cc1)c1ccc(N2CCN(Cc3ccccc3-c3ccc(Cl)cc3)CC2)cc1Oc1ccccc1` [Example 78, 4-{4-[(4′-chloro-1,1′-biphenyl-2-yl)methyl]piperazin-1-yl}-N-({4-[(3-morpholin-4-ylpropyl)amino]phenyl}sulfonyl)-2-phenoxybenzamide] are 113 nM and greater than 660 nM.
